The results in this text go back to patent US20030224942A1, “Alkylamino-1,3,5-triazines, processes for their preparation and their use as herbicides and plant growth regulators” (priority 2001, published 2003).

Assay [1] concerns Chenopodium spp., Papaver spp., Polygonum spp., Veronica spp. or Viola spp. Kind of assay: Post-emergence effect on weeds (greenhouse pot test, visual scoring). Format: in vivo, monocotyledonous and dicotyledonous weeds. The conditions noted are these: treated at three-leaf stage; visual scoring after about 3 to 4 weeks; application rate of 0.5 kg and less of active substance per hectare.

In assay [2] the test system is Cyperus spp., Echinochloa spp., Digitaria spp., Sagitaria spp. and Scirpus spp. The assay is described as follows: Action on harmful plants in rice (paddy rice conditions, visual scoring). To be noted: applied into the dammed water, visual scoring about three weeks after application. It counts as in vivo, typical rice weeds (gramineous and broad-leaved). An excerpt: Transplanted and sown rice and also typical rice weeds (gramineous and broad-leaved) are cultivated in closed plastic pots in a greenhouse to the three-leaf stage (Echinochloa crus-galli 1.5-leaf) under paddy rice conditions (dammed height of water: 2-3 cm). This is followed by treatment with the compounds according to the invention. […] After this treatment, the test plants are set up in a greenhouse under optimum growth conditions and are maintained in this way throughout the test period.

Turning to `Cc1nc(N)nc(NC(C)c2ccc(F)c(C(F)=C(F)F)c2)n1` (stereo not shown) [Product P2.5], the “herbicidal activity post-emergence against harmful plants” value (“herbicidal activity post-emergence” for short) in assay [1] is “very good herbicidal activity”. The “herbicidal activity against harmful plants which are typical for rice crops” value (“herbicidal activity … for rice crops” for short) in assay [2] is on record as “very good herbicidal activity”.
As to `Cc1nc(N)nc(NC(C)c2cc(F)c(C(F)=C(F)F)c(F)c2)n1` (stereo not shown) [Product P2.49], the “herbicidal activity post-emergence” value in assay [1] is “very good herbicidal activity”. The “herbicidal activity … for rice crops” value in assay [2] is given as “very good herbicidal activity”.
For `C#Cc1cc(C(C)Nc2nc(C)nc(N)n2)ccc1F` (stereo not shown) [Product P2.309], the “herbicidal activity post-emergence” value in assay [1] was “very good herbicidal activity”. In addition, the “herbicidal activity … for rice crops” value in assay [2] was “very good herbicidal activity”.
`C#Cc1c(F)cc(C(C)Nc2nc(C)nc(N)n2)cc1F` (stereo not shown) [Product P2.352]: the “herbicidal activity post-emergence” value in assay [1] is given as “very good herbicidal activity”. Also, in assay [2], the “herbicidal activity … for rice crops” value was “very good herbicidal activity”.
As for `CC#Cc1cc(C(C)Nc2nc(C)nc(N)n2)ccc1F` (stereo not shown) [Product P2.384], the “herbicidal activity post-emergence” value in assay [1] was “very good herbicidal activity”. Moreover, in assay [2], the “herbicidal activity … for rice crops” value was “very good herbicidal activity”.
For the molecule `CC#Cc1c(F)cc(C(C)Nc2nc(C)nc(N)n2)cc1F` (stereo not shown) [Product P2.428], the “herbicidal activity post-emergence” value in assay [1] was “very good herbicidal activity”. Also, the “herbicidal activity … for rice crops” value in assay [2] is listed as “very good herbicidal activity”.
For the molecule `Cc1nc(N)nc(NC(C)c2ccc(F)c(C3CC3)c2)n1` (stereo not shown) [Product P2.916], the “herbicidal activity post-emergence” value in assay [1] is “very good herbicidal activity”. Further, in assay [2], the “herbicidal activity … for rice crops” value was “very good herbicidal activity”.
In the case of `Cc1nc(N)nc(NC(C)c2cc(F)c(C3CC3)c(F)c2)n1` (stereo not shown) [Product P2.960], the “herbicidal activity post-emergence” value in assay [1] is recorded as “very good herbicidal activity”. Moreover, in assay [2], the “herbicidal activity … for rice crops” value was “very good herbicidal activity”.
In the case of `Cc1nc(N)nc(NC(C)c2cccc(C(F)=C(F)F)c2)n1` (stereo not shown) [Product P2.1567], the “herbicidal activity post-emergence” value in assay [1] was “very good herbicidal activity”. For the same molecule, the “herbicidal activity … for rice crops” value in assay [2] was “very good herbicidal activity”.
Take `Cc1nc(N)nc(NC(C)c2ccc(C(F)=C(F)F)cc2)n1` (stereo not shown) [Product P2.1568]: in assay [1], the “herbicidal activity post-emergence” value is “very good herbicidal activity”. For the same molecule, the “herbicidal activity … for rice crops” value in assay [2] is given as “very good herbicidal activity”.
Consider `C#Cc1cccc(C(C)Nc2nc(C)nc(N)n2)c1` (stereo not shown) [Product P2.1579], for which the “herbicidal activity post-emergence” value in assay [1] is on record as “very good herbicidal activity”. Moreover, in assay [2], the “herbicidal activity … for rice crops” value is “very good herbicidal activity”.
For `C#Cc1ccc(C(C)Nc2nc(C)nc(N)n2)cc1` (stereo not shown) [Product P2.1580], in assay [1], the “herbicidal activity post-emergence” value is “very good herbicidal activity”. In addition, the “herbicidal activity … for rice crops” value in assay [2] was “very good herbicidal activity”.
With `CC#Cc1cccc(C(C)Nc2nc(C)nc(N)n2)c1` (stereo not shown) [Product P2.1582], the “herbicidal activity post-emergence” value in assay [1] is given as “very good herbicidal activity”. In addition, the “herbicidal activity … for rice crops” value in assay [2] is “very good herbicidal activity”.
Turning to `CC#Cc1ccc(C(C)Nc2nc(C)nc(N)n2)cc1` (stereo not shown) [Product P2.1583], the “herbicidal activity post-emergence” value in assay [1] is on record as “very good herbicidal activity”. For the same molecule, the “herbicidal activity … for rice crops” value in assay [2] was “very good herbicidal activity”.
Regarding `Cc1nc(N)nc(NC(C)c2cccc(C3CC3)c2)n1` (stereo not shown) [Product P2.1603], the “herbicidal activity post-emergence” value in assay [1] is “very good herbicidal activity”. Also, the “herbicidal activity … for rice crops” value in assay [2] was “very good herbicidal activity”.
Regarding `Cc1nc(N)nc(NC(C)c2ccc(C3CC3)cc2)n1` (stereo not shown) [Product P2.1604], in assay [1], the “herbicidal activity post-emergence” value is given as “very good herbicidal activity”. Moreover, the “herbicidal activity … for rice crops” value in assay [2] is given as “very good herbicidal activity”.
For `C#Cc1ccc(C(C)Nc2nc(C)nc(N)n2)cc1F` (stereo not shown) [Product P2.1620], in assay [1], the “herbicidal activity post-emergence” value is recorded as “very good herbicidal activity”. Further, the “herbicidal activity … for rice crops” value in assay [2] is recorded as “very good herbicidal activity”.
`Cc1nc(N)nc(NC(c2ccc(F)c(C(F)=C(F)F)c2)C2CC2)n1` (stereo not shown) [Product P4.5]: the “herbicidal activity post-emergence” value in assay [1] is recorded as “very good herbicidal activity”. Also, the “herbicidal activity … for rice crops” value in assay [2] is given as “very good herbicidal activity”.
Regarding `Cc1nc(N)nc(NC(c2cc(F)c(C(F)=C(F)F)c(F)c2)C2CC2)n1` (stereo not shown) [Product P4.49], the “herbicidal activity post-emergence” value in assay [1] is “very good herbicidal activity”. Moreover, the “herbicidal activity … for rice crops” value in assay [2] was “very good herbicidal activity”.
With `C#Cc1cc(C(Nc2nc(C)nc(N)n2)C2CC2)ccc1F` (stereo not shown) [Product P4.309], in assay [1], the “herbicidal activity post-emergence” value is reported as “very good herbicidal activity”. Moreover, the “herbicidal activity … for rice crops” value in assay [2] is recorded as “very good herbicidal activity”.
On to `CC#Cc1cc(C(Nc2nc(C)nc(N)n2)C2CC2)ccc1F` (stereo not shown) [Product P4.384], for which, in assay [1], the “herbicidal activity post-emergence” value is on record as “very good herbicidal activity”. Further, in assay [2], the “herbicidal activity … for rice crops” value is recorded as “very good herbicidal activity”.
Turning to `CC#Cc1c(F)cc(C(Nc2nc(C)nc(N)n2)C2CC2)cc1F` (stereo not shown) [Product P4.428], the “herbicidal activity post-emergence” value in assay [1] is listed as “very good herbicidal activity”. The “herbicidal activity … for rice crops” value in assay [2] is “very good herbicidal activity”.
On to `Cc1nc(N)nc(NC(c2cccc(C(F)=C(F)F)c2)C2CC2)n1` (stereo not shown) [Product P4.1567], for which the “herbicidal activity post-emergence” value in assay [1] is given as “very good herbicidal activity”. In assay [2], the “herbicidal activity … for rice crops” value is “very good herbicidal activity”.
Consider `Cc1nc(N)nc(NC(c2ccc(C(F)=C(F)F)cc2)C2CC2)n1` (stereo not shown) [Product P4.1568], for which, in assay [1], the “herbicidal activity post-emergence” value was “very good herbicidal activity”. Also, the “herbicidal activity … for rice crops” value in assay [2] was “very good herbicidal activity”.
Take `C#Cc1cccc(C(Nc2nc(C)nc(N)n2)C2CC2)c1` (stereo not shown) [Product P4.1579]: the “herbicidal activity post-emergence” value in assay [1] is reported as “very good herbicidal activity”. In assay [2], the “herbicidal activity … for rice crops” value is on record as “very good herbicidal activity”.
In the case of `C#Cc1ccc(C(Nc2nc(C)nc(N)n2)C2CC2)cc1` (stereo not shown) [Product P4.1580], the “herbicidal activity post-emergence” value in assay [1] is given as “very good herbicidal activity”. Besides, in assay [2], the “herbicidal activity … for rice crops” value was “very good herbicidal activity”.
For `CC#Cc1cccc(C(Nc2nc(C)nc(N)n2)C2CC2)c1` (stereo not shown) [Product P4.1582], the “herbicidal activity post-emergence” value in assay [1] is given as “very good herbicidal activity”. Moreover, in assay [2], the “herbicidal activity … for rice crops” value is “very good herbicidal activity”.
For the molecule `CC#Cc1ccc(C(Nc2nc(C)nc(N)n2)C2CC2)cc1` (stereo not shown) [Product P4.1583], in assay [1], the “herbicidal activity post-emergence” value is given as “very good herbicidal activity”. Also, the “herbicidal activity … for rice crops” value in assay [2] was “very good herbicidal activity”.
Regarding `Cc1nc(N)nc(NC(c2cccc(C3CC3)c2)C2CC2)n1` (stereo not shown) [Product P4.1603], the “herbicidal activity post-emergence” value in assay [1] is listed as “very good herbicidal activity”. For the same molecule, the “herbicidal activity … for rice crops” value in assay [2] is reported as “very good herbicidal activity”.
On to `Cc1nc(N)nc(NC(c2ccc(C3CC3)cc2)C2CC2)n1` (stereo not shown) [Product P4.1604], for which the “herbicidal activity post-emergence” value in assay [1] is reported as “very good herbicidal activity”. For the same molecule, the “herbicidal activity … for rice crops” value in assay [2] is on record as “very good herbicidal activity”.
On to `CCc1nc(N)nc(NCc2ccc(F)c(C(F)=C(F)F)c2)n1` [Product P6.5], for which, in assay [1], the “herbicidal activity post-emergence” value is reported as “very good herbicidal activity”. Besides, the “herbicidal activity … for rice crops” value in assay [2] is “very good herbicidal activity”.
Regarding `CCc1nc(N)nc(NCc2cc(F)c(C(F)=C(F)F)c(F)c2)n1` [Product P6.49], in assay [1], the “herbicidal activity post-emergence” value is on record as “very good herbicidal activity”. Also, in assay [2], the “herbicidal activity … for rice crops” value is “very good herbicidal activity”.
With `C#Cc1cc(CNc2nc(N)nc(CC)n2)ccc1F` [Product P6.309], the “herbicidal activity post-emergence” value in assay [1] is recorded as “very good herbicidal activity”. For the same molecule, the “herbicidal activity … for rice crops” value in assay [2] is listed as “very good herbicidal activity”.
Consider `C#Cc1c(F)cc(CNc2nc(N)nc(CC)n2)cc1F` [Product P6.352], for which the “herbicidal activity post-emergence” value in assay [1] is recorded as “very good herbicidal activity”. Moreover, in assay [2], the “herbicidal activity … for rice crops” value is recorded as “very good herbicidal activity”.
On to `CC#Cc1cc(CNc2nc(N)nc(CC)n2)ccc1F` [Product P6.384], for which the “herbicidal activity post-emergence” value in assay [1] is listed as “very good herbicidal activity”. For the same molecule, the “herbicidal activity … for rice crops” value in assay [2] was “very good herbicidal activity”.
As for `CC#Cc1c(F)cc(CNc2nc(N)nc(CC)n2)cc1F` [Product P6.428], the “herbicidal activity post-emergence” value in assay [1] was “very good herbicidal activity”. Besides, in assay [2], the “herbicidal activity … for rice crops” value is on record as “very good herbicidal activity”.
`CCc1nc(N)nc(NCc2ccc(F)c(C3CC3)c2)n1` [Product P6.916]: the “herbicidal activity post-emergence” value in assay [1] is recorded as “very good herbicidal activity”. The “herbicidal activity … for rice crops” value in assay [2] is “very good herbicidal activity”.
For `CCc1nc(N)nc(NCc2cc(F)c(C3CC3)c(F)c2)n1` [Product P6.960], the “herbicidal activity post-emergence” value in assay [1] is recorded as “very good herbicidal activity”. Also, the “herbicidal activity … for rice crops” value in assay [2] is reported as “very good herbicidal activity”.
